*1 amine or outer side, *2 acyl side, *3 side chain or, on linkers, in order; H or OH if unused. Where a SMILES comes first, the peptide text is derived from it. Bridges are numbered along the chain shown (N, C = ends). TBMB = c1c(C[*:1])cc(C[*:3])cc1C[*:2]
How the values were obtained:
Plasma kallikrein [1] = molecular target: T1, Plasma kallikrein (Homo sapiens, UniProt P03952); assay: Inhibition of human plasma kallikrein using H-DPro-Phe-Arg-AFC as substrate
Plasma kallikrein [2] = molecular target: T1, Plasma kallikrein; assay: Inhibition of human plasma kallikrein usingPro-Phe-Arg-AMC as substrate incubated for 5 mins; type: single protein
Plasma kallikrein [3] = molecular target: T1, Plasma kallikrein; assay: Inhibition of human plasma kallikrein using H-D-Pro-Phe-Arg-p-nitroaniline as substrate assessed as inhibition constant
Kallikrein-1 = Kallikrein-1 (Homo sapiens, UniProt P06870); assay: Inhibition of KLK1 (unknown origin)
Coagulation factor XI [4] = molecular target: T2, Coagulation factor XI (Homo sapiens, UniProt P03951); assay: Inhibition of human fXIa using Z-Gly-Pro-Arg-AFC as substrate
Coagulation factor XII [5] = molecular target: T3, Coagulation factor XII (Homo sapiens, UniProt P00748); assay: Inhibition of human fXIIa using H-DPro-Phe-Arg-AFC as substrate
T3 sequence (P00748 whole entry): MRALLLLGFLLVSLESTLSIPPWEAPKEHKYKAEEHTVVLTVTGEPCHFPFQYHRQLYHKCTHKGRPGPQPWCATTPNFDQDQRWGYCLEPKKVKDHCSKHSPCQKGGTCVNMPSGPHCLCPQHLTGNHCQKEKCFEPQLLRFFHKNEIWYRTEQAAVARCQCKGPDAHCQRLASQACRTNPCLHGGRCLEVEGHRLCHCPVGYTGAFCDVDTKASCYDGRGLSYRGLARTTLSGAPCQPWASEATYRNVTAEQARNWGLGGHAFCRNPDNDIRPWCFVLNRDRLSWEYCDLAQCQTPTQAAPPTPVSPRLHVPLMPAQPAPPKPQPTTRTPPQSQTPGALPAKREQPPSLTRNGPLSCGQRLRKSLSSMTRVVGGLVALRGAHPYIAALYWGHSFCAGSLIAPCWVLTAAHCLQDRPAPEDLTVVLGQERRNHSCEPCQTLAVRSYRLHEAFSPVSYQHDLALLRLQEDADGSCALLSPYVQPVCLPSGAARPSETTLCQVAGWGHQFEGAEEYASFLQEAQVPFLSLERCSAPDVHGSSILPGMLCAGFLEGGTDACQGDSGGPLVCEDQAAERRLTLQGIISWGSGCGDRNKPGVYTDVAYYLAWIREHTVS

Trypsin [6] = molecular target: T4, Trypsin (Homo sapiens, UniProt P07477+P07478+P35030); assay: Inhibition of human trypsin; type: protein assay
Plasminogen [7] = molecular target: T5, Plasminogen (Homo sapiens, UniProt P00747); assay: Inhibition of human plasmin
Prothrombin [8] = molecular target: T6, Prothrombin (Homo sapiens, UniProt P00734); assay: Inhibition of human thrombin
Plasma kallikrein [9] = molecular target: T1, Plasma kallikrein; assay: Inhibition of plasma kallikrein (unknown origin)
Plasminogen [10] = molecular target: T5, Plasminogen; assay: Inhibition of plasmin (unknown origin)
Plasma kallikrein [11] = molecular target: Plasma kallikrein (Rattus norvegicus, UniProt P14272); assay: Inhibition of rat recombinant plasma kallikrein using Z-FR-AMC as substrate assessed as inhibition constant by fluorescence plate reader analysis
Plasminogen [12] = molecular target: T5, Plasminogen; assay: Inhibition of human plasmin using H-d-VLK-AM as substrate assessed as inhibition constant by fluorescence plate reader analysis
Prothrombin [13] = molecular target: T6, Prothrombin; assay: Inhibition of human thrombin using Z-GGR-AMC as substrate assessed as inhibition constant by fluorescence plate reader analysis
Coagulation factor XI [14] = molecular target: T2, Coagulation factor XI; assay: Inhibition of human fXIa using Boc-FSR-AMC as substrate assessed as inhibition constant by fluorescence plate reader analysis
Coagulation factor XII [15] = molecular target: T3, Coagulation factor XII; assay: Inhibition of human fXIIa using Z-GGR-AMC as substrate assessed as inhibition constant by fluorescence plate reader analysis
Coagulation factor XI [16] = molecular target: T2, Coagulation factor XI; assay: Inhibition of fXIa (unknown origin)
Prothrombin [17] = molecular target: T6, Prothrombin; assay: Inhibition of thrombin (unknown origin)
Coagulation factor XII [18] = molecular target: T3, Coagulation factor XII; assay: Inhibition of fXIIa (unknown origin)
Plasminogen [19] = molecular target: T5, Plasminogen; assay: Inhibition of human plasmin by fluorescence based analysis
Prothrombin [20] = molecular target: T6, Prothrombin; assay: Inhibition of human thrombin by fluorescence based analysis
Trypsin [21] = molecular target: T4, Trypsin; assay: Inhibition of trypsin (unknown origin); type: protein assay
[22] = molecular target: Urokinase-type plasminogen activator (Homo sapiens, UniProt P00749); assay: Inhibition of Urokinase (unknown origin)
Plasma kallikrein [23] = molecular target: T1, Plasma kallikrein; assay: Inhibition of human plasma kallikrein incubated for 1 hrs

T2 sequence (P03951 19-387 limits assumed): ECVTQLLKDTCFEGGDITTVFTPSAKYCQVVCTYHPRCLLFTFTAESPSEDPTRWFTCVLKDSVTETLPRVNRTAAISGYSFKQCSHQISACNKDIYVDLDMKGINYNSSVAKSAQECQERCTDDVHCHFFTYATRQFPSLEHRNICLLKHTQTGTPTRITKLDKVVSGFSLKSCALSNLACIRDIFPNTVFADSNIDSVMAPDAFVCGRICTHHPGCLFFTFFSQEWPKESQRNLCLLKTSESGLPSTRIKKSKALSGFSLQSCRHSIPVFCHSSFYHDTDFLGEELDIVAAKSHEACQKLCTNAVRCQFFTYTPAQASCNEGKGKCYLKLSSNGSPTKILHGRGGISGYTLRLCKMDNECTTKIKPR
T2 sequence (P03951 388-625 limits assumed): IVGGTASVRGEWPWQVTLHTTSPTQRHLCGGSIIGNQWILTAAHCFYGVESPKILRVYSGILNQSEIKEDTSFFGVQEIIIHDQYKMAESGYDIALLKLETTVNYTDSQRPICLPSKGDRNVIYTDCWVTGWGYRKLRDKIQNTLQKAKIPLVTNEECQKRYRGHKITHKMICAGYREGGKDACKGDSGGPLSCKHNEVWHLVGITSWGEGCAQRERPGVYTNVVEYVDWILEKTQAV
T5 sequence (P00747 97-580 limits assumed): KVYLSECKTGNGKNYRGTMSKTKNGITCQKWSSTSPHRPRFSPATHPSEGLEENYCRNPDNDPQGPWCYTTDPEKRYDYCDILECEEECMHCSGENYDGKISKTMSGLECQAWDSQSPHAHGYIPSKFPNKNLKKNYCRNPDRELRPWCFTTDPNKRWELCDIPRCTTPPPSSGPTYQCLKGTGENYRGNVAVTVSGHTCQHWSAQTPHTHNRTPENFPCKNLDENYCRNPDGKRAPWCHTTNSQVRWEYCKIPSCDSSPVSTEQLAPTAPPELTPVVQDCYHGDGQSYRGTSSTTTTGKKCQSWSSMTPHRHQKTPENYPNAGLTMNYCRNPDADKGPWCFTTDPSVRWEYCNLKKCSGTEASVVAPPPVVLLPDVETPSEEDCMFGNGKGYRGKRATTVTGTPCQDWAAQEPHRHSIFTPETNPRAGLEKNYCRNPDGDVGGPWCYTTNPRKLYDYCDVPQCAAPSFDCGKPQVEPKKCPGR
T5 sequence (P00747 581-810 limits assumed): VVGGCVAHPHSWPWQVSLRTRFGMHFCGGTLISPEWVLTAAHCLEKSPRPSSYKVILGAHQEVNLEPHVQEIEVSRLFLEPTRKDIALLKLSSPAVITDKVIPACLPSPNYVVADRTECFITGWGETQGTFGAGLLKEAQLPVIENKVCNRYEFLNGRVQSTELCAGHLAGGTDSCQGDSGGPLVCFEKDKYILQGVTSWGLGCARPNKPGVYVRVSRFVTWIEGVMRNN
T1 sequence (P03952 20-390 limits assumed): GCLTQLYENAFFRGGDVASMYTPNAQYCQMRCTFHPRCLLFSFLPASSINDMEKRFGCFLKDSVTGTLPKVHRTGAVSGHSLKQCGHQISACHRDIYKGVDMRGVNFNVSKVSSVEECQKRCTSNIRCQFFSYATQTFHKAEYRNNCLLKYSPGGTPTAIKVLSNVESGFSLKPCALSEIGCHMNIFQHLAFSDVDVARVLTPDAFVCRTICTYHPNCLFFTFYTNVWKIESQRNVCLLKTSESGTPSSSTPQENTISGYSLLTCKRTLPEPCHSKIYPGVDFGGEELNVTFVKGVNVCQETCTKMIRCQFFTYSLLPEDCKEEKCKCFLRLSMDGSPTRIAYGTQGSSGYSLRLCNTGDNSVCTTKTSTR
T1 sequence (P03952 391-638 limits assumed): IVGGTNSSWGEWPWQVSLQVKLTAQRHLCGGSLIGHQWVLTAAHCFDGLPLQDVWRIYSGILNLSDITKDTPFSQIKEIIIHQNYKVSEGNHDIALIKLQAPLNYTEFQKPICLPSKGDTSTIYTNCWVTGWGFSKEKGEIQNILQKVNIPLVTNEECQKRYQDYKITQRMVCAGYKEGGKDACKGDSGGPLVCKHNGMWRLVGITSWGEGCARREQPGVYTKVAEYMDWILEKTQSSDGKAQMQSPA
Sequence of Kallikrein-1 (P06870 whole entry): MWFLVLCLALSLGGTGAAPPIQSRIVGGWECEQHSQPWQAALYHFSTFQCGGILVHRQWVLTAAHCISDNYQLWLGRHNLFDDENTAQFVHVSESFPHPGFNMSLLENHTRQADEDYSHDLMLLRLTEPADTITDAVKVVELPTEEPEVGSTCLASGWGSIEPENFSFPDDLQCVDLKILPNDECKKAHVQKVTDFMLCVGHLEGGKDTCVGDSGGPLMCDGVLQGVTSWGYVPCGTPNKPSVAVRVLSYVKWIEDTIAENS
Sequence of Plasma kallikrein (Rattus norvegicus, UniProt P14272) (P14272 20-390 limits assumed): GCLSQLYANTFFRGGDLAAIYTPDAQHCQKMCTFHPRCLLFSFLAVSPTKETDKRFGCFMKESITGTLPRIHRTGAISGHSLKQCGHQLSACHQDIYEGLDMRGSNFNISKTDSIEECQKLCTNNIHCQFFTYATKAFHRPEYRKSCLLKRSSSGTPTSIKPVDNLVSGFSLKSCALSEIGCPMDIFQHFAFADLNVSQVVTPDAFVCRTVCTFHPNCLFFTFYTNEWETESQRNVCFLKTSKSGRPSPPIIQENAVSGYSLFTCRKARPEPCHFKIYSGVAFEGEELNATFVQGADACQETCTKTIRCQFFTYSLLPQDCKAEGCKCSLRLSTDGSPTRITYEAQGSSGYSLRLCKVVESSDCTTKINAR
Sequence of Plasma kallikrein (Rattus norvegicus, UniProt P14272) (P14272 391-638 limits assumed): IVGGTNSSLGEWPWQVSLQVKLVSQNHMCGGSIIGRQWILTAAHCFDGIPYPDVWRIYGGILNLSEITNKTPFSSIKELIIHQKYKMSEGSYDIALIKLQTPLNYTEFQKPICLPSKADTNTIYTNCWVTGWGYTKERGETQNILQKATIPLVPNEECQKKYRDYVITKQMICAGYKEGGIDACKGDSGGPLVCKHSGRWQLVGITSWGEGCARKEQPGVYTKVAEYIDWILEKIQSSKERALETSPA

Molecule COCc1nn(Cc2ccc(Cn3cccn3)cc2)cc1C(=O)NCc1ccc2c(N)nccc2c1C has an IC50 (Plasma kallikrein [1]) of 0.56 nM.
Molecule Fc1cc2[nH]cc(Cl)c2cc1CNc1ncnc2nc(Cc3ccc4ncc(C(F)(F)F)cc4c3)[nH]c12 has an IC50 (Plasma kallikrein [2]) of less than 100 nM.
NC(CCC1CC1)(c1ccc(F)c(NC(=O)[C@H]2C[C@](O)(c3ccccc3)CN2C(=O)Nc2ccc(Cl)cc2)c1)c1ccccn1 (some centres not stated) gave an IC50 (Plasma kallikrein [3]) of less than 50 nM.
COc1ccnc(CNC(=O)c2cn(Cc3ccc(Cn4ccccc4=O)cc3)nc2C(F)(F)F)c1F gave an IC50 (Kallikrein-1) greater than 4000 nM, an IC50 (Coagulation factor XI [4]) greater than 40000 nM and an IC50 (Coagulation factor XII [5]) greater than 4000 nM. It also gave an IC50 (Trypsin [6]) greater than 40000 nM, an IC50 (Plasminogen [7]) greater than 40000 nM and an IC50 (Prothrombin [8]) greater than 40000 nM.
For Nc1nn(Cc2ccc(Cn3ccccc3=O)cc2)cc1C(=O)N[C@H]1CCN(c2cccc(Cl)c2)C1, the IC50 (Plasma kallikrein [9]) was 4.8 nM.
Work on CC(=O)c1ccc(NC(=O)C(CCCNC(=N)NS(=O)(=O)c2c(C)cc(C)cc2C)NC(=O)C2CCC(CN)CC2)cc1 (configuration not stated) yielded an IC50 (Plasma kallikrein [9]) of 2000 nM and an IC50 (Plasminogen [10]) of 42000 nM.
COCc1nn(Cc2ccc(Cn3cc(C)cn3)cc2)cc1C(=O)NCc1cnc2[nH]cc(Cl)c2c1 was tested, and the IC50 (Plasma kallikrein [1]) was 8.7 nM.
COC(=O)c1ccc(NC(=O)[C@H](CCCCN)NC(=O)C2CCC(CN)CC2)cc1 (some centres not stated) was tested, and the IC50 (Plasma kallikrein [9]) was 50000 nM and the IC50 (Plasminogen [10]) was greater than 500000 nM.
CC(N)C(=O)NC1CSCc2cc3cc(c2)CSCC(C(=O)NC(C)C(N)=O)NC(=O)C(CCCNC(=N)N)NC(=O)C(C(C)C)NC(=O)C(CC(N)=O)NC(=O)C(CSC3)NC(=O)C(C)NC(=O)C(CCCCN)NC(=O)C(Cc2ccccc2)NC1=O (configuration not stated) (H-ACFKACNVRCA-NH2; linker 2-6-10 via TBMB; configuration not given here) showed a Ki (Plasma kallikrein [11]) of 27.2 nM, a Ki (Plasminogen [12]) of 5.2 nM and an IC50 (Prothrombin [13]) greater than 50000 nM. The Ki (Coagulation factor XI [14]) was greater than 50000 nM and the Ki (Coagulation factor XII [15]) was greater than 50000 nM.
CCOc1ccc(C[C@@H](NC(=O)c2sccc2C)C(=O)N[C@@H](Cc2ccccc2)C(=O)NCc2ccc(CN)cc2)cc1 gave an IC50 (Plasma kallikrein [1]) of 10 nM.
Nc1nn(Cc2ccc(Cn3ccccc3=O)cc2)cc1C(=O)NCCOc1cccc(Cl)c1 showed an IC50 (Coagulation factor XI [16]) of 2.9 nM and an IC50 (Kallikrein-1) of 2.9 nM.
With Cc1nc(N)ccc1CNC(=O)c1ccnc(Cc2ccc(Cn3ccccc3=O)c(S(C)(=O)=O)c2)c1 the IC50 (Plasma kallikrein [2]) was less than 100 nM.
In the case of NC(CCC1CC1)(c1ccc(F)c(NC(=O)[C@H]2CC(F)(F)CN2C(=O)Nc2ccc(Cl)cn2)c1)c1ccccn1 (some centres not stated), the IC50 (Plasma kallikrein [3]) is reported as less than 50 nM.
Molecule Cc1cc(N)nc(C)c1CNC(=O)c1cncc(Cc2ccc3ncc(Cl)cc3c2)c1 has an IC50 (Plasma kallikrein [2]) of less than 100 nM.
In the case of NCc1cccc(-n2nc(C(N)=O)cc2C(=O)Nc2cc(C(NCC3CC3)c3ccccc3)ccc2F)c1 (configuration not stated), the IC50 (Plasma kallikrein [3]) is reported as 100 nM and the Ki (Plasma kallikrein [3]) is reported as 0.1 nM.
Molecule CCOc1ccc(C[C@@H](NC(=O)c2ccccc2)C(=O)N[C@@H](Cc2ccccc2)C(=O)NCc2ccc(CN)cc2)cc1 has an IC50 (Plasminogen [10]) of 22 nM, an IC50 (Prothrombin [17]) greater than 10000 nM and an IC50 (Coagulation factor XII [18]) greater than 50000 nM. For the same molecule, the IC50 (Plasminogen [19]) was greater than 10000 nM and the IC50 (Prothrombin [20]) was greater than 10000 nM.
Clc1cnc2ccc(Cc3nc4ncnc(NCc5n[nH]c6ccc(Cl)cc56)c4[nH]3)cc2c1 gave an IC50 (Plasma kallikrein [2]) of less than 100 nM.
For NCC1CCC(C(=O)N[C@@H](Cc2ccccc2)C(=O)Nc2ccc(CC(=O)O)cc2)CC1 (some centres not stated), the IC50 (Plasma kallikrein [9]) was 1300 nM, the IC50 (Plasminogen [10]) was 620000 nM and the IC50 (Trypsin [21]) was 12000 nM. The IC50 [22] was 350000 nM.
In the case of CO[C@@H]1C[C@H](C(=O)Nc2cc(C(N)(CCC3CC3)c3ccccn3)ccc2F)N(C(=O)Nc2ccc(Cl)cc2)C1 (some centres not stated), the IC50 (Plasma kallikrein [3]) is reported as less than 50 nM.
Molecule Fc1cc2[nH]cc(Cl)c2cc1CNc1ncnc2nc(Cc3ccc4ncc(Cl)cc4c3)[nH]c12 has an IC50 (Plasma kallikrein [2]) of less than 100 nM.
NC(CCC1CC1)(c1ccc(F)c(NC(=O)[C@H]2C[C@@H](O)CN2C(=O)Nc2ccc(Cl)cc2)c1)c1ccccn1 (some centres not stated) was tested, and the IC50 (Plasma kallikrein [3]) was less than 50 nM.
Work on Cc1cnn(Cc2ccc(Cn3cc(C(=O)NCc4cnc5[nH]cc(Cl)c5c4)c(C#N)n3)cc2)c1 yielded an IC50 (Plasma kallikrein [23]) of 1 nM.

Reference: ChEMBL document CHEMBL5233226 (Eur J Med Chem, 2020)
